{"source": "patent USH2260H1", "about": "“Stents combined with paclitaxel derivatives” (Angiotech International AG, priority 2005, dated 2011)", "key": {"collagenase expression": {"system": "collagenase expression", "test": "Effect of other anti-microtubules on IL-1 induced collagenase expression in primary chondrocytes", "type": "cell-based, calf", "conditions": "pre-incubation 6 hours, IL-1 20 ng/ml 18 hours; FIGS. 5A-H", "method": "Primary chondrocyte cultures were freshly isolated from calf cartilage. The cells were plated at 2.5×10^6 per ml in 100×20 mm culture dishes and incubated in Ham's F12 medium containing 5% FBS overnight at 37° C. The cells were starved in serum-free medium overnight and then treated with anti-microtubule agents at various concentrations for 6 hours. IL-1 (20 ng/ml) was then added to each plate and the plates incubated for an additional 18 hours. Total RNA was isolated by the acidified guanidine isothiocyanate method and subjected to electrophoresis on a denatured gel. Denatured RNA samples (15 μg) were analyzed by gel electrophoresis in a 1% denatured gel, transferred to a nylon membrane and hybridized with the ^32P-labeled collagenase cDNA probe. ^32P-labeled glyceraldehyde phosphate […] (GAPDH) cDNA as an internal standard to ensure roughly equal loading. The exposed films were scanned and quantitatively analyzed with IMAGEQUANT."}, "[1]": {"system": "AP-1 DNA binding activity", "test": "IL-1 induced AP-1 DNA binding activity, gel mobility shift with chondrocyte extracts", "type": "cell-based", "conditions": "chondrocytes pretreated with 10^−7 to 10^−5 M for 24 hours, IL-1β 20 ng/ml; FIG. 4C", "method": "Binding activity was assayed with a radiolabeled human AP-1 sequence probe and gel mobility shift assay. Extracts from chondrocytes untreated or treated with various amounts of paclitaxel (10^−7 to 10^−5 M) followed by IL-1β (20 ng/ml) were incubated with excess probe on ice for 30 minutes, followed by non-denaturing gel electrophoresis. The “com” lane contains excess unlabeled AP-1 oligonucleotide. The results shown are representative of three independent experiments."}, "MMP-1 mRNA (collagenase)": {"system": "MMP-1 mRNA (collagenase)", "test": "IL-1 induced MMP-1 (collagenase) mRNA expression in chondrocytes, Northern blot", "conditions": "pretreatment 24 hours"}, "MMP-3 mRNA (stromelysin)": {"system": "MMP-3 mRNA (stromelysin)", "test": "IL-1 induced MMP-3 (stromelysin) mRNA expression in chondrocytes, Northern blot", "conditions": "pretreatment 24 hours"}, "human fibroblasts": {"system": "human fibroblasts", "test": "Screening assay, cell proliferation of fibroblasts (CYQUANT)", "type": "cell-based", "conditions": "Fibroblast, 72 hours, average of n=4 experiments, FIG. 8", "description": "Fibroblasts at 70-90% confluency were trypsinized, replated at 600 cells/well in media in 96-well plates and allowed to attach overnight. Paclitaxel was prepared in DMSO at a concentration of 10^−2 M and diluted 10-fold to give a range of stock concentrations (10^−8 M to 10^−2 M). […] Each drug concentration was tested in triplicate wells.\nTo terminate the assay, the media was removed by gentle aspiration. A 1/400 dilution of CYQUANT 400X GR dye indicator (Molecular Probes; Eugene, Oreg.) was added to 1X Cell Lysis buffer, and 200 μL of the mixture was added to the wells of the plate. Plates were incubated at room temperature, protected from light for 3-5 minutes."}, "[2]": {"system": "Chick Chorioallantoic Membrane (CAM)", "test": "Chick chorioallantoic membrane (CAM) angiogenesis assay"}}, "note": "Entries after “also recorded” stand apart in the source; their conditions may differ.", "data": [{"compound": "O=C(CCC(=O)ON1C(=O)CCC1=O)OCCOC(=O)CCC(=O)ON1C(=O)CCC1=O", "note": "[ethylene glycol bis-(succinimidylsuccinate)]", "values": [{"measurement": "concentration (as low as) preventing IL-1-induced collagenase expression", "setting": "collagenase expression", "result": 100, "unit": "nM"}]}, {"compound": "CC(O)CC(C)(C)O", "note": "(centres unmarked) [hexylene glycol]", "values": [{"measurement": "concentration (as low as) preventing IL-1-induced collagenase expression", "setting": "collagenase expression", "result": 100, "unit": "nM"}]}, {"compound": "CC(=O)O[C@H]1C(=O)[C@@]2(C)[C@H]([C@H](OC(=O)c3ccccc3)[C@]3(O)C[C@H](OC(=O)[C@H](O)[C@@H](NC(=O)c4ccccc4)c4ccccc4)C(C)=C1C3(C)C)[C@]1(OC(C)=O)CO[C@@H]1C[C@@H]2O", "note": "[paclitaxel]", "values": [{"measurement": "IL-1 induced AP-1 binding activity", "setting": "[1]", "result": "IL-1 induced binding activity decreased"}, {"measurement": "collagenase mRNA inhibition at 10^−5 M", "setting": "MMP-1 mRNA (collagenase); 10^−5 M paclitaxel", "result": "complete inhibition"}, {"measurement": "collagenase mRNA levels", "setting": "MMP-1 mRNA (collagenase); then IL-1β, FIG. 4D", "result": "inhibited by pretreatment with paclitaxel; also recorded: significantly reduced"}, {"measurement": "stromelysin mRNA inhibition at 10^−5 M", "setting": "MMP-3 mRNA (stromelysin); 10^−5 M paclitaxel", "result": "complete inhibition"}, {"measurement": "stromelysin mRNA levels", "setting": "MMP-3 mRNA (stromelysin); then IL-1β, FIG. 4D", "result": "inhibited by pretreatment with paclitaxel; also recorded: significantly reduced"}, {"measurement": "IC50", "setting": "human fibroblasts", "result": 23, "unit": "nM"}, {"measurement": "angiogenesis in the CAM", "setting": "[2]; 48 hours after application", "result": "angiogenesis was inhibited"}, {"measurement": "maximal avascular zone, avascular gradient scale", "setting": "[2]; within 48 hours, depending on concentration", "result": 3}]}, {"compound": "Nc1ncnc2c1ccn2[C@@H]1O[C@H](CO)[C@@H](O)[C@H]1O", "note": "[tubercidin]", "values": [{"measurement": "concentration (as low as) preventing IL-1-induced collagenase expression", "setting": "collagenase expression", "result": 100, "unit": "nM"}]}]}
